Test system: ECHOR
Assay: In-water applied weed control, transplanted paddy rice, greenhouse (Example II)
Assay type: in vivo, Echinochloa oryzoides (Ard.) Fritsch
Description: Evaluation of in-Water Applied Herbicidal Mixtures for Weed Control in Transplanted Paddy Rice
Weed seeds or nutlets of the desired test plant species were planted in puddled soil (mud) prepared by mixing a shredded, non-sterilized mineral soil (50.5 percent silt, 25.5 percent clay, and 24 percent sand, with a pH of about 7.6 and an organic matter content of about 2.9 percent) and water at a 1:1 volumetric ratio. The prepared mud was dispensed in 365 mL aliquots into 16-ounce (oz.) non-perforated plastic pots with a surface area of 86.59 square centimeters (cm^2) leaving a headspace of 3 centimeters (cm) in each pot. Mud was allowed to dry overnight prior to planting or transplanting. Rice seeds were planted in Sun Gro MetroMix® 306 planting mixture, which typically has a pH of 6.0 to 6.8 and an organic matter content of about 30 percent, in plastic plug trays. Seedlings at the second or third leaf stage of growth were transplanted into 840 mL of mud contained in 32-oz. non-perforated plastic pots with a surface area of 86.59 cm^2 4 days prior to herbicide application. The paddy was created by filling the headspace of the pots with 2.5 to 3 cm of water. When required to ensure good germination and healthy plants, a fungicide treatment and/or other chemical or physical treatment was applied. The plants were grown for 4-22 days in a greenhouse with an approximate 14 h photoperiod which was maintained at about 29′C during the day and 26° C. during the night. Nutrients were added as Osmocote® (19:6:12, N:P:K+ minor nutrients) at 2 g per 16-oz. pot and 4 g per 32-oz. pot. Water was added on a regular basis to maintain the paddy flood, and supplemental lighting was provided with overhead metal halide 1000-Watt lamps as necessary. The plants were employed for testing when they reached the first through fourth true leaf stage.
Treatments consisted of the acid or esters of 4-amino-3-chloro-5-fluoro-6-(4-chloro-2-fluoro-3-methoxy-phenyl)pyridine-2-carboxylic acid (compound A) each formulated as an SC (suspension concentrate) and various herbicidal components alone and in combination. Forms of compound A were applied on an acid equivalent basis.
Other herbicidal components were applied on an active ingredient basis and included 4-hydroxyphenyl pyruvate dioxygenase (HPPD)-inhibiting herbicides mesotrione formulated as Callisto®, sulcotrione formulated as Mikado®, pyrazolynate formulated as Sunbird® 10% GR, and benzobicyclon formulated as Benzobicyclon 3.5% or technical material.
Treatment requirements for each compound or herbicidal component were calculated based upon the rates being tested, the concentration of active ingredient or acid equivalent in the formulation, an application volume of 2 mL per component per pot, and an application area of 86.59 cm^2 per pot.
For formulated compounds, a measured amount was placed in an individual 100 or 200 mL glass vial and was dissolved in a volume of 1.25% (v/v) Agri-Dex® crop oil concentrate to obtain application solutions.
For technical grade compounds, a weighed amount was placed in an individual 100 to 200 mL glass vial and was dissolved in a volume of acetone to obtain concentrated stock solutions. […] The concentrated stock solutions obtained were diluted with an equivalent volume of an aqueous mixture containing 2.5% (v/v) crop oil concentrate so that the final application solutions contained 1.25% (v/v) crop oil concentrate.
Applications were made by injecting with a pipetter appropriate amounts of the application solutions, individually and sequentially, into the aqueous layer of the paddy. Control plants were treated in the same manner with the solvent blank. Applications were made so that all treated plant material received the same concentrations of acetone and crop oil concentrate.
The treated plants and control plants were placed in a greenhouse as described above and water was added as needed to maintain a paddy flood. […]

SMILES | Visual Weed Control (%) - 22 DAA ECHOR Obs (21.2 gae/ha) | Visual Weed Control (%) - 20 DAA ECHOR Obs (42.4 gae/ha) | Visual Weed Control (%) - 22 DAA ECHOR Obs (42.4 gae/ha) | Visual Weed Control (%) - 20 DAA ECHOR Obs (84.8 gae/ha) | Visual Weed Control (%) - 20 DAA ECHOR Obs (4.38 gae/ha) | Visual Weed Control (%) - 21 DAA ECHOR Obs (4.38 gae/ha) | Visual Weed Control (%) - 20 DAA ECHOR Obs (8.75 gae/ha) | Visual Weed Control (%) - 21 DAA ECHOR Obs (8.75 gae/ha) | Visual Weed Control (%) - 22 DAA ECHOR Obs (8.75 gae/ha) | Visual Weed Control (%) - 20 DAA ECHOR Obs (17.5 gae/ha) | Visual Weed Control (%) - 21 DAA ECHOR Obs (17.5 gae/ha) | Visual Weed Control (%) - 22 DAA ECHOR Obs (17.5 gae/ha) | Visual Weed Control (%) - 21 DAA ECHOR Obs (96 gae/ha)
COc1c(Cl)ccc(-c2nc(C(=O)O)c(Cl)c(N)c2F)c1F [Compound A Acid, 4-amino-3-chloro-6-(4-chloro-2-fluoro-3-methoxyphenyl)-5-fluoropyridine-2-carboxylic acid] | 20% | 18% | 40% | 33% | – | – | – | – | – | – | – | – | –
COc1c(Cl)ccc(-c2nc(C(=O)OCc3ccccc3)c(Cl)c(N)c2F)c1F [Compound A Benzyl Ester, benzyl ester of 4-amino-3-chloro-5-fluoro-6-(4-chloro-2-fluoro-3-methoxy-phenyl)pyridine-2-carboxylic acid] | – | – | – | – | 10% | 25% | 20% | 25% | 40% | 30% | 60% | 95% | 80%
